Legend:
[1] = Pharmacokinetic Assay, single oral dose 100 mg/kg (Table 11); format: in vivo; conditions: mouse, C57 female mice, oral (intragastric), plasma
Experimental: Adult C57 female mice were received to single-dose of the test compounds with […], 10% Kolliphor^@HS 15 and 80% saline as excipients, the mice (n=9) were giving oral administration (intragastric administration) with the compounds at a dose of 100 mg/kg. Time of blood collection: 15 min, 30 min, 1 h, 2 h, 4 h, 7 h, 24 h. Approximately 0.1 mL of whole blood was collected from retro-orbital venous plexus of 3 mice at each time point, and placed into tubes that contained K2-EDTA as an anticoagulant. The whole blood was centrifuged at 4° C. and 4000 rpm for 10 min. The plasma was transferred into centrifuge tubes, and stored at −20° C. until being analyzed. Concentrations of test compounds in the plasma samples were analyzed with liquid chromatography-tandem mass spectrometry (LC-MS/MS). Plasma concentration-time data of individual animals was analyzed using Microsoft Excel 2010. Non-compartmental model was introduced in concentration analysis. The pharmacokinetic parameters of the test compounds were calculated using WinNonlin (version 4.1; Pharsight) software.

PD-1/PD-L1 = PD-1/PD-L1 (Homo sapiens (Human), UniProt Q9NZQ7); experiment: PD-1/PD-L1 Binding Assay (Alphascreen); conditions: numeric values
How it was run: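 PD-1/PD-L1 binding detected by anti-6×His acceptor and streptavidin donor beads after 120 min in the dark at 25 °C. Beforehand, the two proteins were incubated 15 min at 25 °C with inhibitor at 0.015–300 nM (1% DMSO). IC50 comes from a log concentration–response curve.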

Sequence of PD-1/PD-L1 (Q9NZQ7 19-238): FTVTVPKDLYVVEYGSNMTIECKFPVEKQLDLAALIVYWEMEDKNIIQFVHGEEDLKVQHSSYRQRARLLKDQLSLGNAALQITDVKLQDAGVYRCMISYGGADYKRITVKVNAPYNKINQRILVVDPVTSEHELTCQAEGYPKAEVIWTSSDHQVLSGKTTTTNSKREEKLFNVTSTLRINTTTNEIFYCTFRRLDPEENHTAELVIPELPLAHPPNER

AUC [1] [ng·h/mL] | Cmax [1] [ng/mL] | Tmax [1] [h] | half-life [1] [h] | IC50 (PD-1/PD-L1) [nM] | Compound
271 | 218 | 0.5 | 3.3 | 0.2 | Cc1c(-c2nc3cc(CN4CCC[C@H]4C(=O)O)c(OC(F)F)cc3o2)cccc1-c1cccc(-c2nc3cc(CN4CCC[C@H]4C(=O)O)c(OC(F)F)cc3o2)c1C [Example 2, (2′S)-(((2,2′-dimethyl-[1,1′-biphenyl]-3,3′-diyl)bis(6-(difluoromethoxy)benzo[d]oxazole-2,5-diyl))bis(methylene))di-L-proline]
461 | 374 | 1 | 0.39 | 89 | COC(=O)[C@@H]1CCCN1Cc1cc2nc(-c3cccc(-c4cccc(-c5nc6cc(CN7CCC[C@H]7C(=O)O)c(OC(F)F)cc6o5)c4C)c3C)oc2cc1OC(F)F [Example 3, ((6-(difluoromethoxy)-2-(3′-(6-(difluoromethoxy)-5-(((S)-2-(methoxycarbonyl)pyrrolidin-1-yl)methyl)benzo[d]oxazol-2-yl)-2,2′-dimethyl-[1,1′-biphenyl]-3-yl)benzo[d]oxazol-5-yl)methyl)-L-proline]
8240 | 974 | 4 | 3.97 | 0.75 | Cc1c(-c2nc3cc(CN4CCC4)c(OC(F)F)cc3o2)cccc1-c1cccc(-c2nc3cc(CN4CCC[C@H]4C(=O)O)c(OC(F)F)cc3o2)c1C [Example 8, ((2-(3′-(5-(azetidin-1-ylmethyl)-6-(difluoromethoxy)benzo[d]oxazol-2-yl)-2,2′-dimethyl-[1,1′-biphenyl]-3-yl)-6-(difluoromethoxy)benzo[d]oxazol-5-yl)methyl)-L-proline]
14500 | 1380 | 2 | 7.97 | 1.1 | Cc1c(-c2nc3cc(CN4CCC[C@H]4CO)c(OC(F)F)cc3o2)cccc1-c1cccc(-c2nc3cc(CN4CCC[C@H]4C(=O)O)c(OC(F)F)cc3o2)c1C [Example 12, ((6-(difluoromethoxy)-2-(3′-(6-(difluoromethoxy)-5-(((S)-2-(hydroxymethyl)pyrrolidin-1-yl)methyl)benzo[d]oxazol-2-yl)-2,2′-dimethyl-[1,1′-biphenyl]-3-yl)benzo[d]oxazol-5-yl)methyl)-L-proline]
3450 | 589 | 1 | 6.2 | 1.2 | Cc1c(-c2nc3cc(CN4CCC(O)C4)c(OC(F)F)cc3o2)cccc1-c1cccc(-c2nc3cc(CN4CCC[C@H]4C(=O)O)c(OC(F)F)cc3o2)c1C (stereo partly drawn) [Example 14, ((6-(difluoromethoxy)-2-(3′-(6-(difluoromethoxy)-5-((3-hydroxypyrrolidin-1-yl)methyl)benzo[d]oxazol-2-yl)-2,2′-dimethyl-[1,1′-biphenyl]-3-yl)benzo[d]oxazol-5-yl)methyl)-L-proline]
5710 | 931 | 1 | 9.83 | 0.5 | CNCc1cc2nc(-c3cccc(-c4cccc(-c5nc6cc(CN7CCC[C@H]7C(=O)O)c(OC(F)F)cc6o5)c4C)c3C)oc2cc1OC(F)F [Example 15, ((6-(difluoromethoxy)-2-(3′-(6-(difluoromethoxy)-5-((methylamino)methyl)benzo[d]oxazol-2-yl)-2,2′-dimethyl-[1,1′-biphenyl]-3-yl)benzo[d]oxazol-5-yl)methyl)-L-proline]
20900 | 1470 | 4 | 4.8 | 1.1 | Cc1c(-c2nc3cc(CN(C)C)c(OC(F)F)cc3o2)cccc1-c1cccc(-c2nc3cc(CN4CCC[C@H]4C(=O)O)c(OC(F)F)cc3o2)c1C [Example 16, ((6-(difluoromethoxy)-2-(3′-(6-(difluoromethoxy)-5-((dimethylamino)methyl)benzo [d]oxazol-2-yl)-2,2′-dimethyl-[1,1′-biphenyl]-3-yl)benzo[d]oxazol-5-yl)methyl)-L-proline]
5800 | 1280 | 1 | 2.79 | 3.2 | Cc1c(-c2nc3cc(CNC4COC4)c(OC(F)F)cc3o2)cccc1-c1cccc(-c2nc3cc(CN4CCC[C@H]4C(=O)O)c(OC(F)F)cc3o2)c1C [Example 28, ((6-(difluoromethoxy)-2-(3′-(6-(difluoromethoxy)-5-((oxetan-3-ylamino)methyl)benzo [d]oxazol-2-yl)-2,2′-dimethyl-[1,1′-biphenyl]-3-yl)benzo[d]oxazol-5-yl)methyl)-L-proline]
42700 | 3720 | 1 | 4.67 | 1.2 | Cc1c(-c2nc3cc(CNC[C@H]4CCCO4)c(OC(F)F)cc3o2)cccc1-c1cccc(-c2nc3cc(CN4CCC[C@H]4C(=O)O)c(OC(F)F)cc3o2)c1C [Example 29, ((6-(difluoromethoxy)-2-(3′-(6-(difluoromethoxy)-5-(((((R)-tetrahydrofuran-2-yl)methyl)amino)methyl)benzo[d]oxazol-2-yl)-2,2′-dimethyl-[1,1′-biphenyl]-3-yl)benzo[d]oxazol-5-yl)methyl)-L-proline]
6600 | 1000 | 1 | 9.81 | 0.5 | Cc1c(-c2nc3cc(CN4CC[C@H]4CO)c(OC(F)F)cc3o2)cccc1-c1cccc(-c2nc3cc(CN4CCC[C@H]4C(=O)O)c(OC(F)F)cc3o2)c1C [Example 31, ((6-(difluoromethoxy)-2-(3′-(6-(difluoromethoxy)-5-(((S)-2-(hydroxymethyl)azetidin-1-yl)methyl)benzo[d]oxazol-2-yl)-2,2′-dimethyl-[1,1′-biphenyl]-3-yl)benzo[d]oxazol-5-yl)methyl)-L-proline]
8920 | 727 | 4 | 11 | 1.5 | Cc1c(-c2nc3cc(CN4CC(N(C)C)C4)c(OC(F)F)cc3o2)cccc1-c1cccc(-c2nc3cc(CN4CCC[C@H]4C(=O)O)c(OC(F)F)cc3o2)c1C [Example 33, ((6-(difluoromethoxy)-2-(3′-(6-(difluoromethoxy)-5-((3-(dimethylamino)azetidin-1-yl)methyl)benzo[d]oxazol-2-yl)-2,2′-dimethyl-[1,1′-biphenyl]-3-yl)benzo[d]oxazol-5-yl)methyl)-L-proline]
21400 | 1670 | 1 | 8.26 | 1.1 | Cc1c(-c2nc3cc(CN4CCC4C)c(OC(F)F)cc3o2)cccc1-c1cccc(-c2nc3cc(CN4CCC[C@H]4C(=O)O)c(OC(F)F)cc3o2)c1C (stereo partly drawn) [Example 36, ((6-(difluoromethoxy)-2-(3′-(6-(difluoromethoxy)-5-((2-methylazetidin-1-yl)methyl)benzo[d]oxazol-2-yl)-2,2′-dimethyl-[1,1′-biphenyl]-3-yl)benzo[d]oxazol-5-yl)methyl)-L-proline]
118000 | 8650 | 4 | 5.37 | 1.6 | Cc1c(-c2nc3cc(CN4CCC(C)C4)c(OC(F)F)cc3o2)cccc1-c1cccc(-c2nc3cc(CN4CCC[C@H]4C(=O)O)c(OC(F)F)cc3o2)c1C (stereo partly drawn) [Example 61, ((6-(difluoromethoxy)-2-(3′-(6-(difluoromethoxy)-5-((3-methylpyrrolidin-1-yl)methyl)benzo[d]oxazol-2-yl)-2,2′-dimethyl-[1,1′-biphenyl]-3-yl)benzo[d]oxazol-5-yl)methyl)-L-proline]
46500 | 4280 | 4 | 9.69 | 2.6 | Cc1c(-c2nc3cc(CN4CCC[C@H]4C(=O)O)c(OC(F)F)cc3o2)cccc1-c1cccc(-c2nc3cc(CN4CCCC4(C)C)c(OC(F)F)cc3o2)c1C [Example 62, ((6-(difluoromethoxy)-2-(3′-(6-(difluoromethoxy)-5-((2,2-dimethylpyrrolidin-1-yl)methyl)benzo[d]oxazol-2-yl)-2,2′-dimethyl-[1,1′-biphenyl]-3-yl)benzo[d]oxazol-5-yl)methyl)-L-proline]
43700 | 2920 | 1 | 5.8 | 5.7 | COC[C@@H]1CCCN1Cc1cc2nc(-c3cccc(-c4cccc(-c5nc6cc(CN7CCC[C@H]7C(=O)O)c(OC(F)F)cc6o5)c4C)c3C)oc2cc1OC(F)F [Example 63, ((6-(difluoromethoxy)-2-(3′-(6-(difluoromethoxy)-5-(((S)-2-(methoxymethyl)pyrrolidin-1-yl)methyl)benzo[d]oxazol-2-yl)-2,2′-dimethyl-[1,1′-biphenyl]-3-yl)benzo[d]oxazol-5-yl)methyl)-L-proline]
61500 | 4320 | 7 | 7.2 | 1.8 | Cc1c(-c2nc3cc(CNC[C@@H]4CCCO4)c(OC(F)F)cc3o2)cccc1-c1cccc(-c2nc3cc(CN4CCC[C@H]4C(=O)O)c(OC(F)F)cc3o2)c1C [Example 64, ((6-(difluoromethoxy)-2-(3′-(6-(difluoromethoxy)-5-(((((S)-tetrahydrofuran-2-yl)methyl)amino)methyl)benzo[d]oxazol-2-yl)-2,2′-dimethyl-[1,1′-biphenyl]-3-yl)benzo[d]oxazol-5-yl)methyl)-L-proline]

Source: patent US12187713B2, “Immunomodulators, compositions and methods thereof” (Betta Pharmaceuticals Co., Ltd, priority 2019, dated 2025)
